Reference: patent US12479823B2, “Compound for use in retinal diseases” (ZHUHAI UNITED LABORATORIES CO., LTD., priority 2018, dated 2025)
Where two headings read alike, the source gives them in different places.

Experiments:
[1] = In vitro aldehyde capture capacity test (complexing with nonanal, HPLC at 254 nm); conditions: for Area under the curve AUC / Slope (linear equation of percentage content of complexed products vs time): nonanal 1.0 eq, compound 1.0 eq, 20-23° C., 10-300 min, HPLC 254 nm; for Slope (linear equation of percentage content of complexed products vs time): in %/min
Method: Objective: dry eye disease is caused by inflammation in eyes, wherein the inflammation may produce aldehydes that will accelerate the inflammation symptoms and worsen the dry eye disease if not eliminated in time. In the experiment, a better compound was selected according to the complexing capacity of the drug and aldehydes in vivo by simulating the in vivo environment.
Procedures: Sulfobutyl-B-cyclodextrin (310 mg) was dissolved in a phosphate buffer (1.25 mL) to prepare a solution.
Nonanal (5.0 mg, 32 μmol, 1.0 eq) and triolein (300 mg) were added to a reaction flask at room temperature, after addition of the prepared solution described above, linoleic acid (300 mg) was added, and finally a dimethyl sulfoxide (0.15 ml) solution containing the compound (32 μmol, 1.0 eq) of the present disclosure was added; the reaction solution was reacted at 20-23° C.
The reaction solution was reacted under stirring for 10 min, 100 min, 200 min, and 300 min respectively, and sampled for high performance liquid chromatography after the solution was stratified after standing for 2 min.
Sampling method: 25 μl of an upper emulsified layer and 50 μl of a lower aqueous phase were sampled by a pipette, and samples were diluted with 1 mL of methanol.
The ultraviolet absorption of the nonanal was weak at 254 nm, so the nonanal had little overall effect on the content of complexed products. Therefore, the percentage contents of complexes at 254 nm under high performance liquid chromatography were compared to observe aldehyde capture and complexing capacities, as shown in FIG. 1 and Table 1:
Taking The compound 7 as an example, after 300 min of reaction, the analytical method for HPLC was XBRIGE 2.5 μm, 3.0*100 mm 5-80CD_XBEH_12 min_0.8.1 cm;
Retention time 6.689 min, 6.787 min, 6.966 min, and 7.102 min were absorption peaks of products complexed with monomolecular aldehyde;
Retention time 8.905 min, 9.010 min, and 9.075 min were absorption peaks of products complexed with bimolecular aldehyde.

[2] = Corneal and plasma drug concentration after eye drops in rats; assay type: in vivo; conditions: for entry into the cornea by eye drops: SD rats, result in words
Method: Objective: To Study the Ratio of Corneal to Plasma Drug Concentration After Eye Drops in Rats
Experimental Materials: Male SD Rats, 200-300 g, 7-9 weeks old, Shanghai Lingchang
Experimental procedures: The candidate compound was prepared as a clear solution, and administered to SD rats by eye drops. The vehicle for eye drops was 10% hydroxypropyl β-cyclodextrin aqueous solution, and the drug concentration in the eye drops was 5 mg/mL. Corneal and whole blood samples were collected at 1 and 4 hours, respectively. The corneal samples was homogenized in 15 mM phosphate buffer (PBS): MeoH (2:1, v: v) buffer, the whole blood samples were centrifuged at 3000 r for 10 min, and the supernatant plasma samples were separated. 20 μL of the plasma samples and homogenate samples were mixed with 400 μL of acetonitrile precipitated proteins containing an internal standard, respectively, and 2 μL of the supernatant was injected by centrifugation. The plasma concentrations were quantified by LC-MS/MS analysis; the drug concentrations in the cornea and plasma were measured respectively according to different time points, and the ratio of corneal/plasma concentrations was calculated.

CYP1A2 = target: T1, CYP1A2 (Homo sapiens, UniProt P05177); assay: Inhibition of human liver microsomal cytochrome P450 CYP1A2; assay type: in vitro ADME; conditions: human liver microsomes, probe substrate, NADPH
T1 construct: fused human liver microsomes were selected as a CYP450 enzyme source; from tissue; host or cells: pooled ("fused") human liver microsomes
T1 sequence (P05177 1-516): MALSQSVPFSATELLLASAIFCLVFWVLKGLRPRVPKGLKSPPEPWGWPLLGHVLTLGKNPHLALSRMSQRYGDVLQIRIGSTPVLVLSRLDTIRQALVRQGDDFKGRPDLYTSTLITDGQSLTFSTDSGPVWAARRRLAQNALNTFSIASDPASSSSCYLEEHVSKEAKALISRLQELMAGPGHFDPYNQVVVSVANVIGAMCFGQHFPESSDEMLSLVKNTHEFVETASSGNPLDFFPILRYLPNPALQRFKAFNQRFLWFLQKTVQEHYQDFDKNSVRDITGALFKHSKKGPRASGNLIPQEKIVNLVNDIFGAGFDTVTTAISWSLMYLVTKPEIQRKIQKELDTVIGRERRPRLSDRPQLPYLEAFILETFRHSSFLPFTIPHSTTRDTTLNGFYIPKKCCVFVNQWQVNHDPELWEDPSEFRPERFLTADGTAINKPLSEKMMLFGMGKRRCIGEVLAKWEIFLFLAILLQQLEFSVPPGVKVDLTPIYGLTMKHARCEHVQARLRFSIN
Text: (§1) Objective: To study the inhibitory effect of compounds on human liver microsomal cytochrome P450. Experimental procedures: In the study on inhibition of the compounds on the human liver microsomal cytochrome P450 (CYP1A2, CYP2C9, CYP2C19, CYP2D6 and CYP3A4), fused human liver microsomes were selected as a CYP450 enzyme source. […]

CYP2C9 = target: T2, CYP2C9 (Homo sapiens, UniProt P11712); assay: Inhibition of human liver microsomal cytochrome P450 CYP2C9; assay type: in vitro ADME; conditions: human liver microsomes, probe substrate, NADPH
T2 construct: fused human liver microsomes were selected as a CYP450 enzyme source; from tissue; host or cells: pooled ("fused") human liver microsomes
T2 sequence (P11712 whole entry, the tested form may be a part): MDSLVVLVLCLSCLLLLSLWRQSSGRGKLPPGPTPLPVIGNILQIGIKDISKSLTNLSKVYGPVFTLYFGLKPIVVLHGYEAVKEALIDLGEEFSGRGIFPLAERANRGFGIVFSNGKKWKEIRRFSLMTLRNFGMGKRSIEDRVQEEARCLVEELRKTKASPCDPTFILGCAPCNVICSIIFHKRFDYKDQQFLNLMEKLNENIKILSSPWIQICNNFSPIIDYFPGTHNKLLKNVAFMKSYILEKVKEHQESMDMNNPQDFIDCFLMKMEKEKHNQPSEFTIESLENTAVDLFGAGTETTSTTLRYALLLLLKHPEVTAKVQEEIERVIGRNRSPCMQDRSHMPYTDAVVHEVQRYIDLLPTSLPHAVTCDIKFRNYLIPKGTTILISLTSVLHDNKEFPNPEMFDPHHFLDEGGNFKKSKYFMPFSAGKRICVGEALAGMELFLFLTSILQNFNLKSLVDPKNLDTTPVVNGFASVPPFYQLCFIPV
Text: as §1

CYP2C19 = target: T3, CYP2C19 (Homo sapiens, UniProt P33261); assay: Inhibition of human liver microsomal cytochrome P450 CYP2C19; assay type: in vitro ADME; conditions: human liver microsomes, probe substrate, NADPH
T3 construct: fused human liver microsomes were selected as a CYP450 enzyme source; from tissue; host or cells: pooled ("fused") human liver microsomes
T3 sequence (P33261 whole entry, the tested form may be a part): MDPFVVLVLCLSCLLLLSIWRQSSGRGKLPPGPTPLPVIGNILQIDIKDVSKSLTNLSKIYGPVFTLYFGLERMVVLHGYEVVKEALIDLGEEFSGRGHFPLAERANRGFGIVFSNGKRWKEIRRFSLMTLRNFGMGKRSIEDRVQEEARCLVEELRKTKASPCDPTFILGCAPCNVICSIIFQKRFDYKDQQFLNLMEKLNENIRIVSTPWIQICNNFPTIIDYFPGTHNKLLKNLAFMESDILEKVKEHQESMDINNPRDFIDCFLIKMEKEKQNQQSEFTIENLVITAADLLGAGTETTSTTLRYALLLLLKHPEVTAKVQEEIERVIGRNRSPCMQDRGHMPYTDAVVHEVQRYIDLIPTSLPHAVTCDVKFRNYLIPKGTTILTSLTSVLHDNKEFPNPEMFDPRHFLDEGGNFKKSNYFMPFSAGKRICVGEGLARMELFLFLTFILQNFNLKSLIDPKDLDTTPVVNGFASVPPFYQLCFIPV
Text: as §1

CYP2D6 = target: T4, CYP2D6 (Homo sapiens, UniProt P10635); assay: Inhibition of human liver microsomal cytochrome P450 CYP2D6; assay type: in vitro ADME; conditions: human liver microsomes, probe substrate, NADPH
T4 construct: fused human liver microsomes were selected as a CYP450 enzyme source; from tissue; host or cells: pooled ("fused") human liver microsomes
T4 sequence (P10635 whole entry, the tested form may be a part): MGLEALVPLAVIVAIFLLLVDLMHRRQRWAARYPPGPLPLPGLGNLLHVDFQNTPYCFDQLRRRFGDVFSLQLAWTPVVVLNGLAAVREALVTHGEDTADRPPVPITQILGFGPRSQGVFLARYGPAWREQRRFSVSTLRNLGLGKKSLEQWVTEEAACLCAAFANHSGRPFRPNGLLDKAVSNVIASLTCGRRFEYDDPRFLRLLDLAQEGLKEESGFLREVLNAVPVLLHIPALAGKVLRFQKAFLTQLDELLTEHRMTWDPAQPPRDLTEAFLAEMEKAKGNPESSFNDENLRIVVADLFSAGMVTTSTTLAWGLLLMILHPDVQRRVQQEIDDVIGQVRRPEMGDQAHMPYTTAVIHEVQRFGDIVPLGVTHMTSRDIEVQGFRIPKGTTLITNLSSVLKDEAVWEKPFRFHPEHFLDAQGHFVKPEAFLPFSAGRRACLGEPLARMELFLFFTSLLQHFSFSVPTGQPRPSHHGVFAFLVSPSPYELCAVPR
Text: as §1

CYP3A4 = target: T5, CYP3A4 (Homo sapiens, UniProt P08684); assay: Inhibition of human liver microsomal cytochrome P450 CYP3A4; assay type: in vitro ADME; conditions: human liver microsomes, two probe substrates, NADPH
T5 construct: fused human liver microsomes were selected as a CYP450 enzyme source; from tissue; host or cells: pooled ("fused") human liver microsomes
T5 sequence (P08684 whole entry, the tested form may be a part): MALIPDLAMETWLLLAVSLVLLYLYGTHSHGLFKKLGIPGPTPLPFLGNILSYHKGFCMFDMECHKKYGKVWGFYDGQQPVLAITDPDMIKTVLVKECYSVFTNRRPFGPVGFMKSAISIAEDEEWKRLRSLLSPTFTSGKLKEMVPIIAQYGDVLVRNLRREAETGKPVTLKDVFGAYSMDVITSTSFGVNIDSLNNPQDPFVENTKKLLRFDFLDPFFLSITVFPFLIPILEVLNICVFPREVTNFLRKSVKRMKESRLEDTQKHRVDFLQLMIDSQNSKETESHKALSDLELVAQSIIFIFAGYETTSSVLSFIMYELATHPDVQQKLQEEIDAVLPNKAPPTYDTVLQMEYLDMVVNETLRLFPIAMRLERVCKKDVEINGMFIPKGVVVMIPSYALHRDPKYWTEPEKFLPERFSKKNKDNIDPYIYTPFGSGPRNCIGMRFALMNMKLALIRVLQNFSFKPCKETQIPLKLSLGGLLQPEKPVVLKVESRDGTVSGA
Text: as §1

| entry into the cornea by eye drops [2] | IC50 (CYP1A2) [µM] | IC50 (CYP2C9) [µM] | IC50 (CYP2C19) [µM] | IC50 (CYP2D6) [µM] | IC50 (CYP3A4) [µM] | concentration at 1 h ([2]; male, Sprague-Dawley (SD), rat, cornea, topical, eye drops 5 mg/mL, 1 h, read-out: Corneal Concentration) [nM] | concentration at 4 h ([2]; male, Sprague-Dawley (SD), rat, cornea, topical, eye drops 5 mg/mL, 4 h, read-out: Corneal Concentration) [nM] | Kp at 1 h ([2]; male, Sprague-Dawley (SD), rat, cornea/plasma, topical, eye drops 5 mg/mL, 1 h, read-out: Corneal Concentration/Plasma Concentration C/P ratio) | Kp at 4 h ([2]; male, Sprague-Dawley (SD), rat, cornea/plasma, topical, eye drops 5 mg/mL, 4 h, read-out: Corneal Concentration/Plasma Concentration C/P ratio) | concentration at 1 h ([2]; male, Sprague-Dawley (SD), rat, plasma, topical, eye drops 5 mg/mL, 1 h, read-out: Plasma Concentration) [nM] | concentration at 4 h ([2]; male, Sprague-Dawley (SD), rat, plasma, topical, eye drops 5 mg/mL, 4 h, read-out: Plasma Concentration) [nM] | SMILES | percentage content of complexed products at 254 nm ([1]; Time 10 min) [%] | percentage content of complexed products at 254 nm ([1]; Time 100 min) [%] | percentage content of complexed products at 254 nm ([1]; Time 200 min) [%] | percentage content of complexed products at 254 nm ([1]; Time 300 min) [%] | Area under the curve AUC [1] [min. Conversion] | Slope (linear equation of percentage content of complexed products vs time) [1] |
| --- | --- | --- | --- | --- | --- | --- | --- | --- | --- | --- | --- | --- | --- | --- | --- | --- | --- | --- |
|  |  |  |  |  |  |  |  |  |  |  |  | CC(C)(O)c1nc(-c2ccc(N)c(C(C)(C)O)n2)ccc1N [Compound 1] | 0.917 | 4.909 | 4.383 | 6.224 | 1257 | 0.0157 |
|  |  |  |  |  |  |  |  |  |  |  |  | CC(C)(O)c1nc(Oc2ccc(N)c(C(C)(C)O)n2)ccc1N [Compound 2] | 2.658 | 4.097 | 4.721 | 5.796 | 1271 | 0.0103 |
|  |  |  |  |  |  |  |  |  |  |  |  | CC(C)(O)c1ncc(-c2cnc(C(C)(C)O)c(N)c2)cc1N [Compound 4] | 1.475 | 7.663 | 13.353 | 18.636 | 3061 | 0.0589 |
|  |  |  |  |  |  |  |  |  |  |  |  | CC(C)(O)c1cc(F)c(Oc2ccc(N)c(C(C)(C)O)n2)cc1N [Compound 6] | 9.738 | 27.850 | 37.847 | 41.686 | 8953 | 0.1083 |
| could enter the cornea by eye drops |  |  |  |  |  |  |  |  |  |  |  | CC(C)(O)c1cc(F)c(-c2cnc(C(C)(C)O)c(N)c2)cc1N [Compound 7] | 6.634 | 20.013 | 29.424 | 36.039 | 6944 | 0.1002 |
| could enter the cornea by eye drops | > 50 | > 50 | > 50 | > 50 | > 50 | 1660 | 167 | 12 | 3.72 | 148 | 36.4 | CC(C)(O)c1cc(Cl)c(-c2cnc(C(C)(C)O)c(N)c2)cc1N [Compound 8] | 4.117 | 12.121 | 15.49 | 19.873 | 3879 | 0.0519 |
|  |  |  |  |  |  |  |  |  |  |  |  | CC(C)(O)c1ccc(-n2cc(C(C)(C)O)c(N)cc2=O)cc1N [Compound 9] | 12.268 | 31.427 | 43.086 | 48.761 | 10284 | 0.1241 |
